Laboratory results from PMC11065314, “Identification of compounds that cause axonal dieback without cytotoxicity in dorsal root ganglia explants and intervertebral disc cells with potential to treat pain via denervation” (PLOS ONE, 2024).
“And” between values parts separate entries of the source, which are not always exact repeats. Equal entries are not always repeated. Structures can show the parent of a compound that is named as a salt. Where two headings read alike, the source gives them in different places.

Key:
adult rat DRG explants = format: cell-based
[1] = DRG cytotoxicity assessment using LDH assay; format: cell-based, rat; conditions: female, rat, rat dorsal root ganglion (DRG) explants, 100 nM, female rat DRG explant, single well
Procedure: (§1) 500 nM Imy and 10 nM Vcr were excluded from female rat DRG experiments while 500 nM Vcr and 1 mM Pyr were excluded from male rat DRG experiments due to insufficient DRG replicates with axon outgrowth. DRG media was removed from wells and transferred into a 96-well plate for pre-treat LDH cytotoxicity assay (see Methods below). 300 μL of media treatment solutions or solvent control solutions were added to wells. DRGs were incubated with treatment solutions for three days, and brightfield images at 4X magnification were taken using BioTek Cytation1 Plate Imager (Agilent) before treatment (day -1) and on days 1, 2 and 3 after treatment. DRGs from adult male and female rats were tested to determine if sex can affect axonal dieback. In total, 12 to 15 DRG replicates per group by sex harvested from n = 3 male and n = 3 female rats were tested.
(§2) Lactate dehydrogenase (LDH) is a cytosolic enzyme present in all cells. Dissociated rat DRG neurons release LDH during tunicamycin-induced apoptosis. […] An ideal axonal dieback compound should cause axonal degeneration without neurotoxicity. was assessed on day 3 post-treat and normalized to pre-treat levels to account for variability in DRG size and growth and calculated as a percentage of cytotoxicity to lysed DRGs (positive control). 50 μL of pre-treatment and post-treatment media were aliquoted in duplicates into a 96-well plate. LDH activity in the media post-treat was assessed using the CyQUANT^TM LDH Cytotoxicity Assay Kit (Thermo Fisher Scientific, C20301) according to the manufacturer’s instructions. Briefly, 50 μL of Substrate Mix was added to each well and then incubated at room temperature for 30 minutes protected from light. 50 μL of Stop solution was added to each well and the absorbance at 490 nm and 680 nm was measured using a microplate reader (Agilent). LDH activity of each DRG was calculated as the difference between absorbance at 490 nm after subtracting the background absorbance at 680 nm. As a positive control, 13 female rat DRGs and 15 male rat DRGs were treated for three days with Lysis buffer solution, provided in the kit, diluted 1:5.45 in DRG media. The percentage of cytotoxicity was calculated following Eq 2. Pre-treat levels of LDH activity were subtracted from post-treat LDH activity in each DRG to remove baseline LDH activity then percentage of cytotoxicity compared to positive control lysed DRG LDH activity was calculated. Sex is a biological factor that can influence neurotoxicity. Thus, percentage of cytotoxicity of total 11 to 14 DRG replicates per group by sex from n = 3 male and n = 3 female rats were tested.
(§3) Cytotoxicity(%)=(PosttreatLDHactivity)−(PretreatLDHactivity)/(MaximumLDHactivityfromlysedDRGs)−(PretreatLDHactivity)×100% (2)

rat DRG explants = experiment: DRG cytotoxicity assessment using LDH assay; format: cell-based; conditions: for Cytotoxicity (%): female rat DRG explant, single well
Procedure: as §1, §2, §3

Human NP cells = experiment: NP cell metabolic activity (AlamarBlue reduction); format: cell-based;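 on AB reduction per cell (%): percent AlamarBlue reduction per manufacturer divided by estimated total cells per well from LIVE/DEAD counts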
Procedure: Nucleus pulposus (NP) cells are native matrix-producing cells at the core of intervertebral discs. To repurpose axonal dieback compounds to denervate aberrant nerve fibers in discs related to chronic LBP, the cytocompatibility of these compounds with NP cells must be evaluated. Human NP cells (Sciencell, 4800) from donor 1 (Lot #5954) and donor 2 (Lot# 21579) were cultured according to previously established protocol in our lab adapted from manufacturer’s instructions. Briefly, passage three cells from both donors were expanded in Poly-L-lysine (PLL) (Sciencell, 413) coated T75 flasks. Cells were then lifted and reseeded at 5,000 cells/cm^2 onto two PLL-coated 48-well plates (Greiner Bio-One, 677180) and allowed to attach overnight before treating with Pyr or Vcr. One plate was used for LIVE/DEAD staining and the other plate was used for AlamarBlue assay as described below. Complete NP cell media (Sciencell, 4801) containing basal media supplemented with 1% penicillin-streptomycin, 1% growth supplement and 2% FBS were used for maintaining cells in culture. To mimic the hypoxic disc environment, NP cells were cultured in a hypoxia chamber (Stem Cell Technologies, 27310) with 5% CO2, 3.5% O2, 91.5% N2 (Airgas) during the entire culture and treatment incubation period.
Pyr stock solution was diluted in complete NP media to achieve final concentrations of 500 μM, 1 mM and 2 mM Pyr. 16.9 μg/mL and 169 μg/mL Vcr stock solutions were prepared in 1X PBS then diluted in complete NP media to achieve final concentrations of 10, 25, 50, 100 nM and 200, 500 nM, respectively. Cells were incubated with 250 μL of final treatment solutions in duplicate wells per donor for three days. Cells in negative control group were incubated with 250 μL of complete NP media with 0.55% v/v 1X PBS as solvent control. On day 3 post-treatment, brightfield images at 4X magnification were taken using a BioTek Cytation1 Plate Imager (Agilent) to verify cell proliferation and observe cell morphology. Three experimental replicates were performed for each cell donor.
On day 3 of incubation with drugs, 25 μL (10% v/v of media volume) of AlamarBlue HS cell viability reagent (Thermo Fisher Scientific, A50100) were added into each well. Cells were incubated with the AlamarBlue reagent for 2 hours at 37°C under hypoxia then 60 μL aliquots of cell media were removed in duplicates into a 96-well plate. The absorbance at 570 and 600 nm were read using a microplate reader (Agilent) and calculations for AlamarBlue reduction were calculated according to the manufacturer’s protocol. To account for different cell confluency between donors and groups, AlamarBlue reduction was normalized to estimated total number of cells per well obtained from LIVE/DEAD staining. Cellular metabolic activity in treated groups was reported as a ratio of normalized AlamarBlue reduction to PBS control group.

[2] = system: dissociated DRG neurons from embryonic mice; design: method as in PMID 31484833; conditions: 40 nM; cited from earlier work
[3] = systemic administration; cited from earlier work

## CC[C@]1(O)C[C@H]2CN(CCc3c([nH]c4ccccc34)[C@@](C(=O)OC)(c3cc4c(cc3OC)N(C=O)[C@H]3[C@@](O)(C(=O)OC)[C@H](OC(C)=O)[C@]5(CC)C=CCN6CC[C@]43[C@@H]65)C2)C1 [Vcr, vincristine sulfate]
Adult rat DRG explants
  Axon length ratio compared to PBS control: significantly lower axon length ratio than PBS control
  Day on which Caps axon length ratio threshold (0.45) was met: ≤ 1 days
  Original axon length left behind: less than 8.1%
Adult rat DRG explants; 100 nM
  Day on which Caps axon length ratio threshold (0.45) was met: ≤ 2 days
[1]
  cytotoxicity at 3 days, 0.1 µM: 15.5%
Rat DRG explants; 1 nM, 0.001 µM
  Cytotoxicity (%): 6.189% and 9.7112% and 4.38%
Rat DRG explants; 10 nM, day 3, male rat DRGs only, relative to lysed DRGs
  Percentage of DRG cytotoxicity, Mean (SD): 7.02 (4.36) %
Rat DRG explants; 100 nM, day 3
  Percentage of cytotoxicity less than lysed DRGs: 89.8%
Rat DRG explants; 100 nM, 0.1 µM
  Cytotoxicity (%): 11.901%
Rat DRG explants; 500 nM, 0.5 µM
  Cytotoxicity (%): 7.521% and 12.2818% and 15.3285%
Rat DRG explants; all concentrations tested, day 3
  Overall cytotoxicity lower compared to lysed DRGs: at least 88%
Human NP cells; 10 nM, donor 1, day 3, single wells (Exp, Rep)
  AB reduction per cell (%): 0.002283% and 0.00154% and 0.001747% and 0.002442% and 0.00231% and 0.002706%
Human NP cells; 10 nM, donor 2, day 3, single wells (Exp, Rep)
  AB reduction per cell (%): 0.001215% and 0.001339% and 0.005412% and 0.01334% and 0.005031% and 0.005908%
Human NP cells; 25 nM, donor 1, day 3, single wells (Exp, Rep)
  AB reduction per cell (%): 0.001389% and 0.003739% and 0.002704% and 0.002205% and 0.001365% and 0.001406%
Human NP cells; 25 nM, donor 2, day 3, single wells (Exp, Rep)
  AB reduction per cell (%): 0.003051% and 0.007629% and 0.005557% and 0.004909% and 0.001181% and 0.0009857%
Human NP cells; 50 nM, donor 1, day 3, single wells (Exp, Rep)
  AB reduction per cell (%): 0.001753% and 0.001156% and 0.00138% and 0.00139% and 0.003609% and 0.003175%
Human NP cells; 50 nM, donor 2, day 3, single wells (Exp, Rep)
  AB reduction per cell (%): 0.0005415% and 0.0008201% and 0.002435% and 0.002975% and 0.005792% and 0.00531%
Human NP cells; 100 nM, donor 1, day 3, single wells (Exp, Rep)
  AB reduction per cell (%): 0.001416% and 0.0009649% and 0.001537% and 0.002073% and 0.00337% and 0.003265%
Human NP cells; 100 nM, donor 2, day 3, single wells (Exp, Rep)
  AB reduction per cell (%): 0.0006846% and 0.0007833% and 0.00204% and 0.002057% and 0.009145% and 0.008838%
Human NP cells; 200 nM, donor 1, day 3, single wells (Exp, Rep)
  AB reduction per cell (%): 0.001363% and 0.0008921% and 0.002395% and 0.003983% and 0.00365% and 0.004535%
Human NP cells; 200 nM, donor 2, day 3, single wells (Exp, Rep)
  AB reduction per cell (%): 0.0005853% and 0.0004556% and 0.002302% and 0.00249% and 0.005313% and 0.004842%
Human NP cells; 500 nM, donor 1, day 3, single wells (Exp, Rep)
  AB reduction per cell (%): 0.001679% and 0.00128% and 0.002381% and 0.004274% and 0.005712% and 0.005618%
Human NP cells; 500 nM, donor 2, day 3, single wells (Exp, Rep)
  AB reduction per cell (%): 0.0008561% and 0.0008471% and 0.004331% and 0.0268% and 0.00643% and 0.009026%
Human NP cells; 10 to 500 nM, donor 1 and 2, day 3
  Cellular metabolic activity compared to PBS control: No significant differences were detected
[2]
  Time to axon degeneration: ≤ 12 h
  Time to complete axon fragmentation: ≤ 36 h
[3]
  Chemotherapy patients developing peripheral neuropathy: 96%
